Columns and labels:
Assay type in all cases: in vivo
[1] = tested on: Beta vulgaris ssp. vulgaris; test: Test Example 4: effect on crop by application to foliage (diluvial soil, plastic box); conditions: for f (Beta vulgaris ssp. vulgaris) effect on crop: application to foliage, application herbicide amount 320 g/ha; for f: Application herbicide amount 320 g/ha, effect on crop
Method in brief: (§1)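 Read-out is a 0–5 visual grade of herbicidal ratio (5: ≥90%, almost withered; 0: ≤5%) taken three weeks after treatment. Compound was applied as a diluted emulsion to stem and leaf parts of 14-day greenhouse-grown plants (25° C. to 30° C.) at rates expressed as g/ha.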

[2] = tested on: directly sowed Oryza sativa; test: as above; conditions: for d (directly sowed Oryza sativa) effect on crop: application to foliage, application herbicide amount 320 g/ha; for d: Application herbicide amount 320 g/ha, effect on crop
Method in brief: as §1

[3] = tested on: Triticum aestivum; test: as above; conditions: for e (Triticum aestivum) effect on crop: application to foliage, application herbicide amount 320 g/ha; for e: Application herbicide amount 320 g/ha, effect on crop
Method in brief: as §1

[4] = tested on: Glycine max; test: as above; conditions: for c (Glycine max) effect on crop: application to foliage, application herbicide amount 320 g/ha; for c: Application herbicide amount 320 g/ha, effect on crop
Method in brief: as §1

[5] = tested on: Brassica campestris L.; test: as above; conditions: for g (Brassica campestris L.) effect on crop: application to foliage, application herbicide amount 320 g/ha; for g: Application herbicide amount 320 g/ha, effect on crop
Method in brief: as §1

[6] = tested on: directly sowed Oryza sativa; test: Test Example 3: effect on crop by application to foliage (Wagner pot, water depth 0.1-0.5 cm); conditions: Nineteenth Table, application herbicide amount 320 g/ha; for b (effect on crop grade): application to foliage
Method in brief: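 Seeds were sown in alluvial soil in Wagner pots, grown for 14 days at 25–30 °C, then sprayed uniformly on foliage with the emulsified compound diluted to a given rate per hectare. Injury was graded three weeks after treatment from 0 (≤5%) to 5 (≥90%).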

[7] = tested on: Echinochloa oryzacola Vasing.; test: Test Example 2: herbicidal activity, application during weed generation in submerged conditions; conditions: Eighteenth Table; application herbicide amount 320 g/ha
Method in brief: (§2)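 Paddy-type pot test: flooded soil, 4 cm depth, greenhouse 25–30 °C. Emulsion formulation diluted in water, applied to water surface at 1–2 leaf stage; rate expressed as g/ha. Read-out at 3 wk, 0–5 score.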

[8] = tested on: Scirpus juncoides; test: as above; conditions: Eighteenth Table; application herbicide amount 320 g/ha
Method in brief: as §2

[9] = tested on: Monochoria vaginalis; test: as above; conditions: Eighteenth Table; application herbicide amount 320 g/ha
Method in brief: as §2

SMILES | f (Beta vulgaris ssp. vulgaris) effect on crop [1] | d (directly sowed Oryza sativa) effect on crop [2] | e (Triticum aestivum) effect on crop [3] | c (Glycine max) effect on crop [4] | g (Brassica campestris L.) effect on crop [5] | b (directly sowed Oryza sativa) effect on crop grade [6] | A (Echinochloa oryzicola Vasing.) herbicidal ratio grade [7] | B (Scirpus juncoides) herbicidal ratio grade [8] | C (Monochoria vaginalis) herbicidal ratio grade [9] | f [1] | d [2] | e [3] | c [4] | g [5] | b (effect on crop grade) [6]
COCCc1nnc(NC(=O)c2ccc(C(F)(F)F)n3c(C(C)C)nnc23)o1 [1-052] | 3 (Herbicidal ratio of 40% or more and less than 70%) | 2 (Herbicidal ratio of 20% or more and less than 40%) | 0 (Herbicidal ratio of 5% or less (almost no effect)) | 0 (Herbicidal ratio of 5% or less (almost no effect)) | 3 (Herbicidal ratio of 40% or more and less than 70%) | 0 (Herbicidal ratio of 5% or less (almost no effect)) | 1 (Herbicidal ratio of 5% or more and less than 20%) | 1 (Herbicidal ratio of 5% or more and less than 20%) | 0 (Herbicidal ratio of 5% or less (almost no effect)) | – | – | – | – | – | –
Cc1nnc(NC(=O)c2ccc(C(F)F)n3c(C(C)C)nnc23)o1 [1-053] | 3 (Herbicidal ratio of 40% or more and less than 70%) | 3 (Herbicidal ratio of 40% or more and less than 70%) | 0 (Herbicidal ratio of 5% or less (almost no effect)) | 0 (Herbicidal ratio of 5% or less (almost no effect)) | 1 (Herbicidal ratio of 5% or more and less than 20%) | 0 (Herbicidal ratio of 5% or less (almost no effect)) | 1 (Herbicidal ratio of 5% or more and less than 20%) | 2 (Herbicidal ratio of 20% or more and less than 40%) | 0 (Herbicidal ratio of 5% or less (almost no effect)) | – | – | – | – | – | –
Cc1nnc(NC(=O)c2ccc(C(F)(F)F)n3c(-c4ccc(Cl)nc4)nnc23)o1 [1-054] | – | – | – | – | – | – | 4 (Herbicidal ratio of 70% or more and less than 90%) | 3 (Herbicidal ratio of 40% or more and less than 70%) | 3 (Herbicidal ratio of 40% or more and less than 70%) | 4 (Herbicidal ratio of 70% or more and less than 90%) | 3 (Herbicidal ratio of 40% or more and less than 70%) | 3 (Herbicidal ratio of 40% or more and less than 70%) | 1 (Herbicidal ratio of 5% or more and less than 20%) | 4 (Herbicidal ratio of 70% or more and less than 90%) | 3 (Herbicidal ratio of 40% or more and less than 70%)
Cc1nnc(NC(=O)c2ccc(C(F)(F)F)n3c(-c4cccc(Cl)n4)nnc23)o1 [1-055] | – | – | – | – | – | – | 3 (Herbicidal ratio of 40% or more and less than 70%) | 3 (Herbicidal ratio of 40% or more and less than 70%) | 3 (Herbicidal ratio of 40% or more and less than 70%) | 5 (Herbicidal ratio of 90% or more (almost completely withered)) | 3 (Herbicidal ratio of 40% or more and less than 70%) | 1 (Herbicidal ratio of 5% or more and less than 20%) | 0 (Herbicidal ratio of 5% or less (almost no effect)) | 4 (Herbicidal ratio of 70% or more and less than 90%) | 2 (Herbicidal ratio of 20% or more and less than 40%)
Cc1cc(-c2nnc3c(C(=O)Nc4nnc(C)o4)ccc(C(F)(F)F)n23)n(C)n1 [1-056] | – | – | – | – | – | – | 5 (Herbicidal ratio of 90% or more (almost completely withered)) | 4 (Herbicidal ratio of 70% or more and less than 90%) | 4 (Herbicidal ratio of 70% or more and less than 90%) | 5 (Herbicidal ratio of 90% or more (almost completely withered)) | 4 (Herbicidal ratio of 70% or more and less than 90%) | 1 (Herbicidal ratio of 5% or more and less than 20%) | 4 (Herbicidal ratio of 70% or more and less than 90%) | 5 (Herbicidal ratio of 90% or more (almost completely withered)) | 4 (Herbicidal ratio of 70% or more and less than 90%)
Cc1nnc(NC(=O)c2ccc(C(F)(F)F)n3c(-c4cccs4)nnc23)o1 [1-057] | – | – | – | – | – | – | 2 (Herbicidal ratio of 20% or more and less than 40%) | 3 (Herbicidal ratio of 40% or more and less than 70%) | 3 (Herbicidal ratio of 40% or more and less than 70%) | 5 (Herbicidal ratio of 90% or more (almost completely withered)) | 3 (Herbicidal ratio of 40% or more and less than 70%) | 0 (Herbicidal ratio of 5% or less (almost no effect)) | 1 (Herbicidal ratio of 5% or more and less than 20%) | 3 (Herbicidal ratio of 40% or more and less than 70%) | 3 (Herbicidal ratio of 40% or more and less than 70%)
Cc1nnc(NC(=O)c2ccc(C(F)(F)F)n3c(-c4cncs4)nnc23)o1 [1-058] | – | – | – | – | – | – | 4 (Herbicidal ratio of 70% or more and less than 90%) | 5 (Herbicidal ratio of 90% or more (almost completely withered)) | 4 (Herbicidal ratio of 70% or more and less than 90%) | 5 (Herbicidal ratio of 90% or more (almost completely withered)) | 4 (Herbicidal ratio of 70% or more and less than 90%) | 1 (Herbicidal ratio of 5% or more and less than 20%) | 4 (Herbicidal ratio of 70% or more and less than 90%) | 4 (Herbicidal ratio of 70% or more and less than 90%) | 4 (Herbicidal ratio of 70% or more and less than 90%)
C#CCSc1nnc2c(C(=O)Nc3nnc(C)o3)ccc(C(F)(F)F)n12 [1-065] | – | – | – | – | – | – | 1 (Herbicidal ratio of 5% or more and less than 20%) | 2 (Herbicidal ratio of 20% or more and less than 40%) | 2 (Herbicidal ratio of 20% or more and less than 40%) | 4 (Herbicidal ratio of 70% or more and less than 90%) | 3 (Herbicidal ratio of 40% or more and less than 70%) | 0 (Herbicidal ratio of 5% or less (almost no effect)) | 0 (Herbicidal ratio of 5% or less (almost no effect)) | 2 (Herbicidal ratio of 20% or more and less than 40%) | 0 (Herbicidal ratio of 5% or less (almost no effect))
Cc1nnc(NC(=O)c2ccc(C(F)(F)C(F)(F)F)n3c(C(C)C)nnc23)o1 [1-066] | – | – | – | – | – | – | 2 (Herbicidal ratio of 20% or more and less than 40%) | 3 (Herbicidal ratio of 40% or more and less than 70%) | 2 (Herbicidal ratio of 20% or more and less than 40%) | 4 (Herbicidal ratio of 70% or more and less than 90%) | 3 (Herbicidal ratio of 40% or more and less than 70%) | 0 (Herbicidal ratio of 5% or less (almost no effect)) | 0 (Herbicidal ratio of 5% or less (almost no effect)) | 0 (Herbicidal ratio of 5% or less (almost no effect)) | 0 (Herbicidal ratio of 5% or less (almost no effect))
Cc1nnc(NC(=O)c2ccc(C(F)(F)F)n3c(C=O)nnc23)o1 [1-068] | – | – | – | – | – | – | 2 (Herbicidal ratio of 20% or more and less than 40%) | 2 (Herbicidal ratio of 20% or more and less than 40%) | 2 (Herbicidal ratio of 20% or more and less than 40%) | 4 (Herbicidal ratio of 70% or more and less than 90%) | 3 (Herbicidal ratio of 40% or more and less than 70%) | 1 (Herbicidal ratio of 5% or more and less than 20%) | 0 (Herbicidal ratio of 5% or less (almost no effect)) | 4 (Herbicidal ratio of 70% or more and less than 90%) | 1 (Herbicidal ratio of 5% or more and less than 20%)
COc1ccc(Cc2nnc3c(C(=O)Nc4nnc(C)o4)ccc(C(F)(F)F)n23)cc1 [1-069] | – | – | – | – | – | – | 4 (Herbicidal ratio of 70% or more and less than 90%) | 4 (Herbicidal ratio of 70% or more and less than 90%) | 4 (Herbicidal ratio of 70% or more and less than 90%) | 5 (Herbicidal ratio of 90% or more (almost completely withered)) | 3 (Herbicidal ratio of 40% or more and less than 70%) | 1 (Herbicidal ratio of 5% or more and less than 20%) | 1 (Herbicidal ratio of 5% or more and less than 20%) | 3 (Herbicidal ratio of 40% or more and less than 70%) | 1 (Herbicidal ratio of 5% or more and less than 20%)

From US9708314B2, “Heterocyclic amide compound” (NISSAN CHEMICAL INDUSTRIES, LTD., priority 2013, dated 2017)
